Experimental data published in patent US12617779B2, “Self degradation-type CDK9 inhibitor prodrug and liposome encapsulating same” (Sumitomo Pharma Co., Ltd., priority 2021, dated 2026).

Key:
[1] = Evaluation of conversion rate to active form in buffer solution (Experimental Example 1); type: physicochemical; settings: for Production rate of Alvocidib / Residual rate: 25 umol/L in buffer solution; for Stability in buffer solution at pH 5: pH 5, 37° C., up to 2 or 3 hours; for Conversion to Alvocidib at pH 7.4: pH 7.4, 37° C., up to 3 hours
Method in brief: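 Prodrugs were held at 25 umol/L and 37° C in 50 mM citrate (pH 5.0, 5.5) or 50 mM phosphate (pH 6.0–7.4) buffer. Parent remaining and Alvocidib formed were quantified by HPLC at 0, 0.5, 1, 2 and 3 hours.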

[2] = Evaluation of conversion rate to active form in human plasma (Experimental Example 3); type: in vitro ADME; settings: 0.2 μmol/L, 37° C.; for Residual rate (%) of test compound: Human plasma; for Conversion to Alvocidib in human plasma: Examples up to 60 minutes, Comparative Examples up to 120 minutes
Method in brief: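 Test compound at 0.2 μmol/L was incubated at 37° C in human or BALB/c mouse plasma and sampled at 0, 30 and 60 min or at 0, 60 and 120 min. Compound and Alvocidib were quantified by LC-MS/MS peak area. Attrition is relative to 0 min; conversion is relative to 0.2 μmol/L Alvocidib reference.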

## CCN(C[C@@H]1CCCCN1)C(=O)Oc1cc(O)c2c(=O)cc(-c3ccccc3Cl)oc2c1[C@H]1CCN(C)C[C@H]1O [Example 1, 2-(2-chlorophenyl)-5-hydroxy-8-[(3S,4R)-3-hydroxy-1-methylpiperidin-4-yl]-4-oxo-4H-1-benzopyran-7-yl ethyl{[(2S)-piperidin-2-yl]methyl}carbamate ditrifluoroacetate]
[1]; buffer solution, 37° C.
  Efficiency of conversion to Alvocidib: higher efficiency
[1]; pH5.0, 0 hr, 37° C.
  Production rate of Alvocidib: 0.0%
  Residual rate: 98.7%
[1]
  Stability in buffer solution at pH 5: stable
  Conversion to Alvocidib at pH 7.4: rapidly converted to Alvocidib
[1]; pH5.0, 0.5 hr, 37° C.
  Production rate of Alvocidib: 0.4%
  Residual rate: 98.4%
[1]; pH5.0, 1 hr, 37° C.
  Production rate of Alvocidib: 0.7%
  Residual rate: 98.1%
[1]; pH5.0, 2 hr, 37° C.
  Production rate of Alvocidib: 1.3%
  Residual rate: 97.4%
[1]; pH5.0, 3 hr, 37° C.
  Production rate of Alvocidib: 1.8%
  Residual rate: 96.9%
[1]; pH5.5, 0 hr, 37° C.
  Production rate of Alvocidib: 0.0%
  Residual rate: 98.8%
[1]; pH5.5, 0.5 hr, 37° C.
  Production rate of Alvocidib: 1.0%
  Residual rate: 97.3%
[1]; pH5.5, 1 hr, 37° C.
  Production rate of Alvocidib: 1.8%
  Residual rate: 97.1%
[1]; pH5.5, 2 hr, 37° C.
  Production rate of Alvocidib: 3.5%
  Residual rate: 95.3%
[1]; pH5.5, 3 hr, 37° C.
  Production rate of Alvocidib: 5.1%
  Residual rate: 93.8%
[1]; pH6.0, 0 hr, 37° C.
  Production rate of Alvocidib: 0.0%
  Residual rate: 99.2%
[1]; pH6.0, 0.5 hr, 37° C.
  Production rate of Alvocidib: 3.3%
  Residual rate: 95.5%
[1]; pH6.0, 1 hr, 37° C.
  Production rate of Alvocidib: 6.3%
  Residual rate: 92.5%
[1]; pH6.0, 2 hr, 37° C.
  Production rate of Alvocidib: 12.0%
  Residual rate: 86.8%
[1]; pH6.0, 3 hr, 37° C.
  Production rate of Alvocidib: 17.0%
  Residual rate: 81.8%
[1]; pH6.5, 0 hr, 37° C.
  Production rate of Alvocidib: 0.0%
  Residual rate: 98.4%
[1]; pH6.5, 0.5 hr, 37° C.
  Production rate of Alvocidib: 8.7%
  Residual rate: 90.2%
[1]; pH6.5, 1 hr, 37° C.
  Production rate of Alvocidib: 16.4%
  Residual rate: 82.0%
[1]; pH6.5, 2 hr, 37° C.
  Production rate of Alvocidib: 30.1%
  Residual rate: 68.4%
[1]; pH6.5, 3 hr, 37° C.
  Production rate of Alvocidib: 40.7%
  Residual rate: 57.7%
[1]; pH7.0, 0 hr, 37° C.
  Production rate of Alvocidib: 0.0%
  Residual rate: 98.9%
[1]; pH7.0, 0.5 hr, 37° C.
  Production rate of Alvocidib: 23.2%
  Residual rate: 75.0%
[1]; pH7.0, 1 hr, 37° C.
  Production rate of Alvocidib: 41.1%
  Residual rate: 57.8%
[1]; pH7.0, 2 hr, 37° C.
  Production rate of Alvocidib: 65.3%
  Residual rate: 33.5%
[1]; pH7.0, 3 hr, 37° C.
  Production rate of Alvocidib: 77.1%
  Residual rate: 21.0%
[1]; pH7.4, 0 hr, 37° C.
  Production rate of Alvocidib: 0.4%
  Residual rate: 98.5%
[1]; pH7.4, 0.5 hr, 37° C.
  Production rate of Alvocidib: 44.9%
  Residual rate: 53.8%
[1]; pH7.4, 1 hr, 37° C.
  Production rate of Alvocidib: 69.3%
  Residual rate: 29.3%
[1]; pH7.4, 2 hr, 37° C.
  Production rate of Alvocidib: 87.6%
  Residual rate: 11.3%
[1]; pH7.4, 3 hr, 37° C.
  Production rate of Alvocidib: 91.4%
  Residual rate: 6.9%
[2]; 0 min
  Residual rate (%) of test compound: 100%
[2]; 30 min
  Residual rate (%) of test compound: 6%
[2]; 60 min
  Residual rate (%) of test compound: 0%
[2]
  Conversion to Alvocidib in human plasma: proceeded rapidly

## CCN(C[C@H]1CCCCN1)C(=O)Oc1cc(O)c2c(=O)cc(-c3ccccc3Cl)oc2c1[C@H]1CCN(C)C[C@H]1O [Example 2, 2-(2-chlorophenyl)-5-hydroxy-8-[(3S,4R)-3-hydroxy-1-methylpiperidin-4-yl]-4-oxo-4H-1-benzopyran-7-yl ethyl{[(2R)-piperidin-2-yl]methyl}carbamate]
[1]; pH5.0, 0 hr, 37° C.
  Production rate of Alvocidib: 0.0%
  Residual rate: 95.5%
[1]
  Stability in buffer solution at pH 5: stable
  Conversion to Alvocidib at pH 7.4: rapidly converted to Alvocidib
[1]; pH5.0, 0.5 hr, 37° C.
  Production rate of Alvocidib: 0.3%
  Residual rate: 95.4%
[1]; pH5.0, 1 hr, 37° C.
  Production rate of Alvocidib: 0.5%
  Residual rate: 95.1%
[1]; pH5.0, 2 hr, 37° C.
  Production rate of Alvocidib: 1.1%
  Residual rate: 94.7%
[1]; pH5.0, 3 hr, 37° C.
  Production rate of Alvocidib: 1.6%
  Residual rate: 94.1%
[1]; pH5.5, 0 hr, 37° C.
  Production rate of Alvocidib: 0.0%
  Residual rate: 95.8%
[1]; pH5.5, 0.5 hr, 37° C.
  Production rate of Alvocidib: 0.8%
  Residual rate: 95.1%
[1]; pH5.5, 1 hr, 37° C.
  Production rate of Alvocidib: 1.7%
  Residual rate: 94.3%
[1]; pH5.5, 2 hr, 37° C.
  Production rate of Alvocidib: 3.2%
  Residual rate: 92.5%
[1]; pH5.5, 3 hr, 37° C.
  Production rate of Alvocidib: 5.3%
  Residual rate: 90.4%
[1]; pH6.0, 0 hr, 37° C.
  Production rate of Alvocidib: 0.0%
  Residual rate: 95.5%
[1]; pH6.0, 0.5 hr, 37° C.
  Production rate of Alvocidib: 2.9%
  Residual rate: 93.0%
[1]; pH6.0, 1 hr, 37° C.
  Production rate of Alvocidib: 5.7%
  Residual rate: 89.6%
[1]; pH6.0, 2 hr, 37° C.
  Production rate of Alvocidib: 11.1%
  Residual rate: 81.0%
[1]; pH6.0, 3 hr, 37° C.
  Production rate of Alvocidib: 15.7%
  Residual rate: 74.5%
[1]; pH6.5, 0 hr, 37° C.
  Production rate of Alvocidib: 0.0%
  Residual rate: 95.9%
[1]; pH6.5, 0.5 hr, 37° C.
  Production rate of Alvocidib: 7.9%
  Residual rate: 87.4%
[1]; pH6.5, 1 hr, 37° C.
  Production rate of Alvocidib: 15.1%
  Residual rate: 75.4%
[1]; pH6.5, 2 hr, 37° C.
  Production rate of Alvocidib: 27.2%
  Residual rate: 57.4%
[1]; pH6.5, 3 hr, 37° C.
  Production rate of Alvocidib: 36.1%
  Residual rate: 45.1%
[1]; pH7.0, 0 hr, 37° C.
  Production rate of Alvocidib: 0.0%
  Residual rate: 95.4%
[1]; pH7.0, 0.5 hr, 37° C.
  Production rate of Alvocidib: 21.0%
  Residual rate: 66.7%
[1]; pH7.0, 1 hr, 37° C.
  Production rate of Alvocidib: 38.0%
  Residual rate: 44.8%
[1]; pH7.0, 2 hr, 37° C.
  Production rate of Alvocidib: 53.4%
  Residual rate: 19.9%
[1]; pH7.0, 3 hr, 37° C.
  Production rate of Alvocidib: 60.8%
  Residual rate: 9.8%
[1]; pH7.4, 0 hr, 37° C.
  Production rate of Alvocidib: 0.2%
  Residual rate: 95.4%
[1]; pH7.4, 0.5 hr, 37° C.
  Production rate of Alvocidib: 38.7%
  Residual rate: 41.7%
[1]; pH7.4, 1 hr, 37° C.
  Production rate of Alvocidib: 56.4%
  Residual rate: 17.1%
[1]; pH7.4, 2 hr, 37° C.
  Production rate of Alvocidib: 66.0%
  Residual rate: 3.5%
[1]; pH7.4, 3 hr, 37° C.
  Production rate of Alvocidib: 67.6%
  Residual rate: 1.5%
[2]; 0 min
  Residual rate (%) of test compound: 100%
[2]; 30 min
  Residual rate (%) of test compound: 4%
[2]; 60 min
  Residual rate (%) of test compound: 2%
[2]
  Conversion to Alvocidib in human plasma: proceeded rapidly
